Where two headings read alike, the source gives them in different places. Values belong to the compound of their own block, whether it stands above or below them.
Tests used:
SK-MEL-28 = experiment: Inhibition of cells growth by colorimetric (SRB) assay, SK-MEL-28; conditions: for GI50 / CC50: Homo sapiens, SK-MEL-28, 48 h; for GI50: read-out: MEL-28 GI50, SRB assay, 48 hours exposure; for CC50: read-out: MEL-28 LC50, SRB assay, 48 hours exposure; for MEL-28 TGI: SRB assay, 48 hours exposure
Procedure, shortened: (§1)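 Human tumour cells seeded at 5×10^3/well in RPMI 1640 10% FBS, attached 18 h, then exposed 48 h to samples at 10 to 10^−8 μg/ml in DMSO/EtOH/PBS (0.5:0.5:99). Growth read by SRB staining after TCA fixation, OD 490 nm, triplicate wells; GI, TGI and LC derived.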

HT-29 = experiment: Inhibition of cells growth by colorimetric (SRB) assay, HT-29; conditions: for GI50 / CC50: Homo sapiens, HT-29, 48 h
Procedure, shortened: as §1

DU-145 = experiment: Inhibition of cells growth by colorimetric (SRB) assay, DU-145; conditions: for GI50 / CC50: Homo sapiens, DU-145, 48 h; for GI50: read-out: DU-145 GI50, SRB assay, 48 hours exposure; for CC50: read-out: DU-145 LC50, SRB assay, 48 hours exposure; for DU-145 TGI: SRB assay, 48 hours exposure
Procedure, shortened: as §1

IGROV-ET = experiment: Inhibition of cells growth by colorimetric (SRB) assay, IGROV-ET; conditions: for GI50 / CC50: Homo sapiens, 48 h; for GI50: read-out: IGROV-ET GI50, SRB assay, 48 hours exposure; for CC50: read-out: IGROV-ET LC50, SRB assay, 48 hours exposure; for IGROV-ET TGI: SRB assay, 48 hours exposure
Procedure, shortened: as §1

LoVo-Dox = experiment: Inhibition of cells growth by colorimetric (SRB) assay, LoVo-Dox; conditions: for GI50 / CC50: Homo sapiens, 48 h; for GI50: read-out: LOVO-DOX GI50, SRB assay, 48 hours exposure; for CC50: read-out: LOVO-DOX LC50, SRB assay, 48 hours exposure; for LOVO-DOX TGI: SRB assay, 48 hours exposure
Procedure, shortened: as §1

K-562 = experiment: Inhibition of cells growth by colorimetric (SRB) assay, K-562; conditions: for GI50 / CC50: Homo sapiens, K562, 48 h; for GI50: read-out: K-562 GI50, SRB assay, 48 hours exposure; for CC50: read-out: K-562 LC50, SRB assay, 48 hours exposure; for K-562 TGI: SRB assay, 48 hours exposure
Procedure, shortened: as §1

A-549 = experiment: Inhibition of cells growth by colorimetric (SRB) assay, A-549; conditions: for GI50 / CC50: Homo sapiens, A549, 48 h
Procedure, shortened: as §1

LoVo = experiment: Inhibition of cells growth by colorimetric (SRB) assay, LoVo; conditions: for GI50 / CC50: Homo sapiens, LoVo, 48 h; for GI50: read-out: LOVO GI50, SRB assay, 48 hours exposure; for CC50: read-out: LOVO LC50, SRB assay, 48 hours exposure; for LOVO TGI: SRB assay, 48 hours exposure
Procedure, shortened: as §1

HeLa = experiment: Inhibition of cells growth by colorimetric (SRB) assay, HeLa; conditions: for GI50: Homo sapiens, HeLa, 48 h, read-out: HELA GI50, SRB assay, 48 hours exposure; for HELA TGI: SRB assay, 48 hours exposure
Excerpt: (§2) The finality of these assays is to interrupt the growth of a “in vitro” tumor cell culture by means a continued exhibition of the cells to the sample to be testing.
(§3) This form of the assay employs 96 well cell culture microplates of 9 mm diameter (Faircloth, 1988; Mosmann, 1983). Most of the cell lines are obtained from American Type Culture Collection (ATCC) derived from different human cancer types.
(§4) Cells are maintained in RPMI 1640 10% FBS, supplemented with 0.1 g/l penicillin and 0.1 g/l streptomycin sulphate and then incubated at 37° C., 5% CO2 and 98% humidity. For the experiments, cells were harvested from subconfluent cultures using trypsin and resuspended in fresh medium before plating.
(§5) Cells are seeded in 96 well microtiter plates, at 5×10^3 cells per well in aliquots of 195 μl medium, and they are allowed to attach to the plate surface by growing in drug free medium for 18 hours. Afterward, samples are added in aliquots of 5 μl in a ranging from 10 to 10^−8 μg/ml, dissolved in DMSO/EtOH/PBS (0.5:0.5:99). After 48 hours exposure, the antitumor effect are measured by the SRB methodology: cells are fixed by adding 50 μl of cold 50% (wt/vol) trichloroacetic acid (TCA) and incubating for 60 minutes at 4° C. Plates are washed with deionized water and dried. One hundred μl of SRB solution (0.4% wt/vol in 1% acetic acid) is added to each microtiter well and incubated for 10 minutes at room temperature. Unbound SRB is removed by washing with 1% acetic acid. Plates are air dried and bound stain is solubilized with Tris buffer. Optical densities are read on a automated spectrophotometric plate reader at a single wavelength of 490 nm.
(§6) The values for mean +/−SD of data from triplicate wells are calculated. Some parameters for cellular responses can be calculated: GI=growth inhibition, TGI=total growth inhibition (cytostatic effect) and LC=cell killing (cytotoxic effect).

LNCaP = experiment: Inhibition of cells growth by colorimetric (SRB) assay, LNCaP; conditions: for GI50 / CC50: Homo sapiens, LNCaP, 48 h; for GI50: read-out: LN-caP GI50, SRB assay, 48 hours exposure; for CC50: read-out: LN-caP LC50, SRB assay, 48 hours exposure; for LN-caP TGI: SRB assay, 48 hours exposure
Procedure, shortened: as §1

IGROV-1 = experiment: Inhibition of cells growth by colorimetric (SRB) assay, IGROV-1; conditions: for GI50 / CC50: Homo sapiens, IGROV-1, 48 h; for GI50: read-out: IGROV GI50, SRB assay, 48 hours exposure; for CC50: read-out: IGROV LC50, SRB assay, 48 hours exposure; for IGROV TGI: SRB assay, 48 hours exposure
Procedure, shortened: as §1

PANC-1 = experiment: Inhibition of cells growth by colorimetric (SRB) assay, PANC-1; conditions: for GI50 / CC50: Homo sapiens, PANC-1, 48 h; for GI50: read-out: PANC-1 GI50, SRB assay, 48 hours exposure; for CC50: read-out: PANC-1 LC50, SRB assay, 48 hours exposure; for PANC-1 TGI: SRB assay, 48 hours exposure
Procedure, shortened: as §1

SK-BR-3 = experiment: Inhibition of cells growth by colorimetric (SRB) assay, SK-BR-3; conditions: for GI50 / CC50: Homo sapiens, SK-BR-3, 48 h; for GI50: read-out: SK-BR-3 GI50, SRB assay, 48 hours exposure; for CC50: read-out: SK-BR-3 LC50, SRB assay, 48 hours exposure; for SK-BR-3 TGI: SRB assay, 48 hours exposure
Procedure, shortened: as §1

HeLa-APL = experiment: Inhibition of cells growth by colorimetric (SRB) assay, HeLa-APL; conditions: for GI50 / CC50: Homo sapiens, 48 h; for GI50: read-out: HELA-APL GI50, SRB assay, 48 hours exposure; for CC50: read-out: HELA-APL LC50, SRB assay, 48 hours exposure; for HELA-APL TGI: SRB assay, 48 hours exposure
Excerpt: as §2, §3, §4, §5, §6

[1] = read-out: HT-29 GI50, SRB assay, 48 hours exposure
[2] = read-out: HT-29 LC50, SRB assay, 48 hours exposure
[3] = read-out: A-549 GI50, SRB assay, 48 hours exposure
[4] = read-out: A-549 LC50, SRB assay, 48 hours exposure

GI50 (SK-MEL-28): 1080 nM
GI50 (HT-29; [1]): 1140 nM
GI50 (DU-145): 365 nM
GI50 (LoVo-Dox): 1150 nM
GI50 (K-562): 2510 nM
GI50 (A-549; [3]): 1290 nM
GI50 (LoVo): 539 nM
GI50 (HeLa): 10 nM
GI50 (LNCaP): 310 nM
GI50 (PANC-1): 588 nM
GI50 (SK-BR-3): 641 nM
GI50 (HeLa-APL): 10.3 nM
SMILES: CSc1nccc(-c2c3cccnc3n3c(N)nccc23)n1.Cl [Compound 68]
CC50 (SK-MEL-28): 14400 nM
MEL-28 TGI (SK-MEL-28): 4.49E−06
CC50 (HT-29; [2]): 29000 nM
HT-29 TGI (HT-29; SRB assay, 48 hours exposure): 6.93E−06
CC50 (DU-145): 2900 nM
DU-145 TGI (DU-145): 1.03E−06
GI50 (IGROV-ET): 2820 nM
CC50 (IGROV-ET): 29000 nM
IGROV-ET TGI (IGROV-ET): 1.44E−05
CC50 (LoVo-Dox): 29000 nM
LOVO-DOX TGI (LoVo-Dox): 2.43E−06
CC50 (K-562): 29000 nM
K-562 TGI (K-562): 1.84E−05
CC50 (A-549; [4]): 29000 nM
A-549 TGI (A-549; SRB assay, 48 hours exposure): 5.10E−06
CC50 (LoVo): 2590 nM
LOVO TGI (LoVo): 1.18E−06
HELA TGI (HeLa): 3.19E−08
CC50 (LNCaP): 4410 nM
LN-caP TGI (LNCaP): 1.05E−06
GI50 (IGROV-1): 1720 nM
CC50 (IGROV-1): 29000 nM
IGROV TGI (IGROV-1): 1.27E−05
CC50 (PANC-1): 29000 nM
PANC-1 TGI (PANC-1): 1.15E−05
CC50 (SK-BR-3): 16100 nM
SK-BR-3 TGI (SK-BR-3): 3.42E−06
CC50 (HeLa-APL): 655 nM
HELA-APL TGI (HeLa-APL): 5.68E−08

GI50 (SK-MEL-28): 2190 nM
GI50 (HT-29; read-out: GI50 HT-29, SRB assay, 48 hours exposure): 14300 nM
GI50 (HT-29; [1]): 887 nM
GI50 (DU-145): 985 nM
GI50 (LoVo-Dox): 2040 nM
GI50 (K-562): 12800 nM
GI50 (A-549; [3]): 517 nM
GI50 (A-549; read-out: GI50 A-549, SRB assay, 48 hours exposure): 5710 nM
GI50 (LoVo): 1220 nM
GI50 (HeLa): 7.16 nM
GI50 (LNCaP): 1080 nM
GI50 (PANC-1): 4990 nM
GI50 (SK-BR-3): 1230 nM
GI50 (HeLa-APL): 5.94 nM
SMILES: CSc1nccc(-c2c3cccnc3n3c(NC(C)=O)nccc23)n1 [Compound 69]
CC50 (SK-MEL-28): 16400 nM
MEL-28 TGI (SK-MEL-28): 6.51E−06
CC50 (HT-29; [2]): 28500 nM
CC50 (HT-29; read-out: LC50 HT-29, SRB assay, 48 hours exposure): 28600 nM
HT-29 TGI (HT-29; SRB assay, 48 hours exposure): 6.51E−06
TGI HT-29 (HT-29; SRB assay, 48 hours exposure): 2.86E−05
CC50 (DU-145): 23700 nM
DU-145 TGI (DU-145): 4.59E−06
GI50 (IGROV-ET): 7310 nM
CC50 (IGROV-ET): 28500 nM
IGROV-ET TGI (IGROV-ET): 2.18E−05
CC50 (LoVo-Dox): 28500 nM
LOVO-DOX TGI (LoVo-Dox): 9.79E−06
CC50 (K-562): 28500 nM
K-562 TGI (K-562): 2.85E−05
CC50 (A-549; [4]): 2750 nM
CC50 (A-549; read-out: LC50 A-549, SRB assay, 48 hours exposure): 28600 nM
A-549 TGI (A-549; SRB assay, 48 hours exposure): 1.19E−06
TGI A-549 (A-549; SRB assay, 48 hours exposure): 2.29E−05
CC50 (LoVo): 28500 nM
LOVO TGI (LoVo): 7.28E−06
HELA TGI (HeLa): 3.60E−08
CC50 (LNCaP): 28500 nM
LN-caP TGI (LNCaP): 4.77E−06
GI50 (IGROV-1): 2130 nM
CC50 (IGROV-1): 28500 nM
IGROV TGI (IGROV-1): 8.53E−06
CC50 (PANC-1): 28500 nM
PANC-1 TGI (PANC-1): 1.91E−05
CC50 (SK-BR-3): 24800 nM
SK-BR-3 TGI (SK-BR-3): 6.25E−06
CC50 (HeLa-APL): 380 nM
HELA-APL TGI (HeLa-APL): 2.45E−08
